Converted amounts (≈) assume the structure as drawn. Where a name gives a salt, the structure may show the parent alone. Read-outs that look alike come from different tables or passages of the source.
Columns and labels:
Physalospora piricola = assay: Fungicidal activity, fungi growth rate method, PP; assay type: cell-based; conditions: 50 μg/mL
Botrytis cinerea = assay: Fungicidal activity, fungi growth rate method, BC; assay type: cell-based; conditions: 50 μg/mL; for inhibition at 50 µg/mL: Botrytis cinerea
Rhizoctonia cerealis = assay: Fungicidal activity, fungi growth rate method, RC; assay type: cell-based; conditions: 50 μg/mL; for inhibition at 50 µg/mL: Ceratobasidium cereale
Cercospora arachidicola = assay: Fungicidal activity, fungi growth rate method, CA; assay type: cell-based; conditions: 50 μg/mL; for inhibition at 50 µg/mL: Mycosphaerella arachidis
[1] = test system: tobacco mosaic virus (TMV); assay: Anti-TMV curative activity (treatment mode), live friction inoculation on tobacco seedlings; assay type: in vivo; conditions: for inhibition at 100 µg/mL: Tobacco mosaic virus
[2] = test system: tobacco mosaic virus (TMV); assay: Anti-TMV inducing activity (induction mode), tobacco seedlings; assay type: in vivo; conditions: for inhibition at 100 µg/mL: Tobacco mosaic virus
Sclerotinia sclerotiorum = assay: microbe, parasite or virus in culture; assay type: cell-based
Pellicularia sasakii = assay: Fungicidal activity, fungi growth rate method, PS; assay type: cell-based; conditions: 50 μg/mL
[3] = test system: tobacco mosaic virus (TMV); assay: Anti-TMV protective activity (protection mode), live friction inoculation on tobacco seedlings; assay type: in vivo; conditions: for inhibition at 100 µg/mL: Tobacco mosaic virus, read-out: Anti-TMV activity, Protection effect (inhibition)
[4] = test system: tobacco mosaic virus (TMV); assay: Anti-TMV inactivation activity (inactivation mode), compound mixed with TMV before inoculation of tobacco leaves; assay type: in vivo; conditions: for inhibition at 100 µg/mL: Tobacco mosaic virus, read-out: Anti-TMV activity, Inactivation effect (inhibition)
Alternaria solani = assay: Fungicidal activity, fungi growth rate method, AS; assay type: cell-based; conditions: 50 μg/mL; for inhibition at 50 µg/mL: Alternaria solani
[5] = test system: Phytophthora infestans (Mont) de Bary; assay: microbe, parasite or virus in culture; assay type: cell-based; conditions: for inhibition at 50 µg/mL: Phytophthora infestans
wheat Gibberella zeae = assay: microbe, parasite or virus in culture; assay type: cell-based; conditions: for inhibition at 50 µg/mL: Fusarium graminearum
[6] = read-out: Fungicidal activity, inhibition, PP
[7] = read-out: Fungicidal activity, inhibition, BC
[8] = read-out: Fungicidal activity, inhibition, RC
[9] = read-out: Fungicidal activity, inhibition, CA
[10] = read-out: Anti-TMV activity, Curative effect (inhibition), 100 μg/mL, tobacco seedlings, checked on seventh day
[11] = read-out: Anti-TMV activity, Induction effect (inhibition), 100 μg/mL, tobacco seedlings
[12] = Sclerotinia sclerotiorum, 50 μg/mL, read-out: Fungicidal activity (inhibition) against SS: Sclerotinia sclerotiorum
[13] = Sclerotinia sclerotiorum, 50 μg/mL, read-out: Fungicidal activity, inhibition, SS
[14] = read-out: Fungicidal activity, inhibition, PS
[15] = read-out: Fungicidal activity, inhibition, AS
[16] = read-out: Fungicidal activity, inhibition, PI
[17] = read-out: Fungicidal activity, inhibition, GZ
[18] = 100 μg/mL, tobacco seedlings, read-out: Anti-TMV activity, Induction effect (inhibition)
[19] = 100 μg/mL, tobacco leaves, checked on seventh day
[20] = read-out: Fungicidal activity (inhibition) against PP: Physalospora piricola
[21] = read-out: Fungicidal activity (inhibition) against BC: Botrytis cinerea
[22] = read-out: Fungicidal activity (inhibition) against RC: Rhizoctonia cerealis
[23] = read-out: Fungicidal activity (inhibition) against CA: Cercospora arachidicola
[24] = read-out: Fungicidal activity (inhibition) against PS: Pellicularia sasakii
[25] = read-out: Fungicidal activity (inhibition) against AS: Alternaria solani
[26] = read-out: Fungicidal activity (inhibition) against PI: Phytophthora infestans (Mont) de Bary
[27] = read-out: Fungicidal activity (inhibition) against GZ: wheat Gibberella zeae
[28] = 100 μg/mL, tobacco seedlings, checked on seventh day

SMILES	inhibition at 50 µg/mL (Physalospora piricola; [6]) [%]	inhibition at 50 µg/mL (Botrytis cinerea; [7]) [%]	inhibition at 50 µg/mL (Rhizoctonia cerealis; [8]) [%]	melting point [°C]	inhibition at 50 µg/mL (Cercospora arachidicola; [9]) [%]	inhibition at 100 µg/mL [1, 10] [%]	inhibition at 100 µg/mL [2, 11] [%]	inhibition at 50 µg/mL (Sclerotinia sclerotiorum; [12]) [%]	inhibition at 50 µg/mL (Sclerotinia sclerotiorum; [13]) [%]	inhibition at 50 µg/mL (Pellicularia sasakii; [14]) [%]	inhibition at 100 µg/mL [3] [%]	inhibition at 100 µg/mL [4] [%]	inhibition at 50 µg/mL (Alternaria solani; [15]) [%]	inhibition at 50 µg/mL [5, 16] [%]	inhibition at 50 µg/mL (wheat Gibberella zeae; [17]) [%]	also measured
Cc1nnsc1/C=C1\N=C(c2ccccc2)OC1=O [Compound 77, (4Z)-4-[5-(4-methyl-1,2,3-thiadiazol)ethenyl]-2-phenyl-1,3-oxazol-5-(4H)-one]	6	12	23	196 to 198	24	0	44	47	47	14	40	0	11	16	43	–
O=C(N/C(=C\c1ccc([N+](=O)[O-])cc1)C(=O)N1CCC(O)(c2ccc(Br)cc2)CC1)c1ccccc1 [Compound 23, (Z)-N-[1-[[4-(4-bromophenyl)-4-hydroxy-1-piperidinyl]carbonyl]-2-(4-nitrophenyl)ethenyl]benzamide]	10	7	26	186 to 188	10	0	11	–	67	33	59	4	25	17	19	–
NC(=O)c1ncn([C@@H]2O[C@H](CO)[C@@H](O)[C@H]2O)n1 [Ribavirin, ribavirin, reference compound]	–	–	–	–	–	28	–	–	–	–	58	–	–	–	–	inhibition at 100 µg/mL [2, 18]: 4%; inhibition at 100 µg/mL [4, 19]: 81%
O=C(N/C(=C\c1ccccc1)C(=O)N1CCC(O)(c2ccc(Br)cc2)CC1)C1CCNCC1 (as salt: hydrochloride) [Compound 4, (Z)-N-[1-[[4-(4-bromophenyl)-4-hydroxy-1-piperidinyl]carbonyl]-2-phenylethenyl]-1-piperidine-4-carboxamide-hydrochloride]	–	–	–	147 to 149	–	–	–	–	–	–	–	–	–	–	–	–
O=C(N/C(=C\c1cccs1)C(=O)N1CCC(O)(c2ccc(Br)cc2)CC1)c1ccccc1 [Compound 24, (Z)-N-[1-[[4-(4-bromophenyl)-4-hydroxy-1-piperidinyl]carbonyl]-2-(2-thienyl)ethenyl]benzamide]	10	14	19	180 to 182	16	0	–	67	67	18	36	1	15	17	23	inhibition at 50 µg/mL (Physalospora piricola; [20]): < 20%; inhibition at 50 µg/mL (Botrytis cinerea; [21]): ≤ 20%; inhibition at 50 µg/mL (Rhizoctonia cerealis; [22]): < 20%; inhibition at 50 µg/mL (Cercospora arachidicola; [23]): < 25%; inhibition at 50 µg/mL (Pellicularia sasakii; [24]): < 30%; inhibition at 50 µg/mL (Alternaria solani; [25]): < 30%; inhibition at 50 µg/mL [5, 26]: < 25%; inhibition at 50 µg/mL (wheat Gibberella zeae; [27]): < 45%
CNCC(=O)N[C@@H](CO)C(=O)N[C@H]1[C@H](O)[C@@H](O)[C@H](n2ccc(N)nc2=O)O[C@@H]1C(N)=O [Ningnanmycin, ningnanmycin, reference compound]	–	–	–	–	–	63	82	–	–	–	71	58	–	–	–	Anti-TMV activity, Curative effect (inhibition) [1, 28]: 62%
O=C(N/C(=C\c1ccccc1)C(=O)N1CCC(O)(c2ccc(Br)cc2)CC1)C1CCNCC1 [Compound 4, (Z)-N-[1-[[4-(4-bromophenyl)-4-hydroxy-1-piperidinyl]carbonyl]-2-phenylethenyl]-1-piperidine-4-carboxamide-hydrochloride]	12	24	23	–	6	0	1	–	47	9	1	3	21	11	43	–
CO/C=C(/C(=O)OC)c1ccccc1Oc1cc(Oc2ccccc2C#N)ncn1 [azoxystrobin, reference compound]	–	–	–	–	–	–	–	–	–	–	–	–	–	–	–	Fungicidal activity (inhibition) against PP: Physalospora piricola (Physalospora piricola): 81%; Fungicidal activity (inhibition) against BC: Botrytis cinerea (Botrytis cinerea): 78%; Fungicidal activity (inhibition) against RC: Rhizoctonia cerealis (Rhizoctonia cerealis): 67%; Fungicidal activity (inhibition) against CA: Cercospora arachidicola (Cercospora arachidicola): 81%; Fungicidal activity, inhibition, SS (Sclerotinia sclerotiorum; 50 μg/mL): 100%; Fungicidal activity (inhibition) against PS: Pellicularia sasakii (Pellicularia sasakii): 92%; Fungicidal activity (inhibition) against AS: Alternaria solani (Alternaria solani): 79%; Fungicidal activity (inhibition) against PI: Phytophthora infestans (Mont) de Bary ([5]; 50 μg/mL): 91%; Fungicidal activity (inhibition) against GZ: wheat Gibberella zeae (wheat Gibberella zeae; 50 μg/mL): 100%
O=C(N/C(=C\c1ccccc1)C(=O)N1CCC(O)(c2ccc(Br)cc2)CC1)c1ccccc1 [Compound 76, (Z)-N-[1-[[4-(4-bromophenyl)-4-hydroxy-1-piperidinyl]carbonyl]-2-phenylethenyl]benzamide, reference compound]	15	18	15	–	24	0	15	50	50	14	38	29	14	24	43	inhibition at 50 µg/mL (Physalospora piricola; [20]): 15%; inhibition at 50 µg/mL (Botrytis cinerea; [21]): 18%; inhibition at 50 µg/mL (Rhizoctonia cerealis; [22]): 15%; inhibition at 50 µg/mL (Cercospora arachidicola; [23]): 24%; inhibition at 50 µg/mL (Pellicularia sasakii; [24]): 14%; inhibition at 50 µg/mL (Alternaria solani; [25]): 14%; inhibition at 50 µg/mL [5, 26]: 24%; inhibition at 50 µg/mL (wheat Gibberella zeae; [27]): 43%
O=C(N/C(=C\c1ccco1)C(=O)N1CCC(O)(c2ccc(Br)cc2)CC1)c1ccccc1 [Compound 25, (Z)-N-[1-[[4-(4-bromophenyl)-4-hydroxy-1-piperidinyl]carbonyl]-2-(2-furanyl)ethenyl]benzamide]	15	20	36	134 to 135	22	55	–	100	100	27	46	31	16	10	31	inhibition at 50 µg/mL (Physalospora piricola; [20]): < 20%; inhibition at 50 µg/mL (Botrytis cinerea; [21]): ≤ 20%; inhibition at 50 µg/mL (Rhizoctonia cerealis; [22]): 36%; inhibition at 50 µg/mL (Cercospora arachidicola; [23]): < 25%; EC90 (Sclerotinia sclerotiorum; Sclerotinia sclerotiorum, read-out: EC90 against S. sclerotiorum in vitro): 221 µg/mL (≈ 446 µM); inhibition at 50 µg/mL (Pellicularia sasakii; [24]): < 30%; inhibition at 50 µg/mL (Alternaria solani; [25]): < 30%; inhibition at 50 µg/mL [5, 26]: < 25%; inhibition at 50 µg/mL (wheat Gibberella zeae; [27]): < 45%
Cc1ccc(NC(=O)c2snnc2C)cc1Cl [TDL, Tiadinil, reference compound]	–	–	–	–	–	–	–	–	–	–	–	–	–	–	–	inhibition at 100 µg/mL ([1]; 100 μg/mL, tobacco seedlings, checked on seventh day, read-out: Anti-TMV activity, Curative effect (inhibition)): 49%; inhibition at 100 µg/mL [2, 18]: 73%; inhibition at 100 µg/mL [3, 28]: 32%; inhibition at 100 µg/mL [4, 19]: 55%
CSC(=O)c1cccc2nnsc12 [BTH, Acibenzolar-S-Methyl, reference compound]	–	–	–	–	–	–	–	–	–	–	–	–	–	–	–	Anti-TMV activity, Curative effect (inhibition) [1, 28]: 50.00%; Anti-TMV activity, Induction effect (inhibition) ([2]; 100 μg/mL, tobacco seedlings): 96%; Anti-TMV activity, Protection effect (inhibition) [3, 28]: 76%; Anti-TMV activity, Inactivation effect (inhibition) [4, 19]: 63%
